According to PMC12198292, “Advancing in vitro assessment of iodide uptake inhibition: integrating a novel biotransformation pretreatment step” (Archives of Toxicology, 2025):
In brackets after ≈: the same amount, converted by molar mass. Like-named read-outs stand apart in the source and are kept apart here.

Legend:
human NIS [1] = target: T1, human NIS (Homo sapiens, UniProt Q92911); experiment: NIS-inhibition assay (iodide uptake, Sandell–Kolthoff reaction) on HEK293T NIS C; type: cell-based; parameters: host or cells: HEK293T (lentiviral transduction, puromycin selection, GFP sorting; lines NIS 02 and NIS C); conditions: mean ± SD, ≥ 3 independent experiments; 2 h exposure; SK reaction
T1 sequence (Q92911 1-643): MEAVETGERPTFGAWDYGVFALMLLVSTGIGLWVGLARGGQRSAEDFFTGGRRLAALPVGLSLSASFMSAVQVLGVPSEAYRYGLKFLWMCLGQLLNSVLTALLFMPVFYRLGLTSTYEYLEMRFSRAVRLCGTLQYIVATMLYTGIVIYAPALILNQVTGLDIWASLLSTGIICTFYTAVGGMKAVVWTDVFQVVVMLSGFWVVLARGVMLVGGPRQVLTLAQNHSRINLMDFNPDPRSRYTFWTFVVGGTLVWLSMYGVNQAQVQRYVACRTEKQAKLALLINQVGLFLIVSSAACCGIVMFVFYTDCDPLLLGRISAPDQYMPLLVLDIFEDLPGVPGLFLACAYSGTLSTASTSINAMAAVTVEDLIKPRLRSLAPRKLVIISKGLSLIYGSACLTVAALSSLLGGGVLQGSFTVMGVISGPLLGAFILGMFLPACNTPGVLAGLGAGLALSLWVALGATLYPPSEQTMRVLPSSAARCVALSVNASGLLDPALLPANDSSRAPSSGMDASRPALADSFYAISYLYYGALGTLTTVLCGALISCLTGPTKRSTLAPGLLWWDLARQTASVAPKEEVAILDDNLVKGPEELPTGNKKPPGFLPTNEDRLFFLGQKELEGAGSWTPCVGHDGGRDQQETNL

human NIS [2] = target: T1, human NIS; experiment: NIS-inhibition assay (iodide uptake, Sandell–Kolthoff reaction) on HEK293T NIS 02; type: cell-based; parameters: host or cells: HEK293T (lentiviral transduction, puromycin selection, GFP sorting; lines NIS 02 and NIS C); conditions: mean ± SD, ≥ 3 independent experiments, 2 h exposure, SK reaction; for IC50: read-out: NIS IC50 HEK293T NIS 02
HEK293T NIS C cells = experiment: Neutral red uptake viability assay, HEK293T NIS C; conditions: mean±SD, 2 h exposure
NIS = target: T2, NIS (Rattus norvegicus, UniProt Q63008); experiment: NIS-inhibition assay (iodide uptake, Sandell–Kolthoff reaction) on FRTL-5; type: cell-based; conditions: mean ± SD, ≥ 3 independent experiments; 2 h exposure; SK reaction
T2 construct: the endogenously NIS-expressing rat FRTL-5 cell line; host or cells: FRTL-5 (CVCL_0265)
T2 sequence (Q63008 1-618): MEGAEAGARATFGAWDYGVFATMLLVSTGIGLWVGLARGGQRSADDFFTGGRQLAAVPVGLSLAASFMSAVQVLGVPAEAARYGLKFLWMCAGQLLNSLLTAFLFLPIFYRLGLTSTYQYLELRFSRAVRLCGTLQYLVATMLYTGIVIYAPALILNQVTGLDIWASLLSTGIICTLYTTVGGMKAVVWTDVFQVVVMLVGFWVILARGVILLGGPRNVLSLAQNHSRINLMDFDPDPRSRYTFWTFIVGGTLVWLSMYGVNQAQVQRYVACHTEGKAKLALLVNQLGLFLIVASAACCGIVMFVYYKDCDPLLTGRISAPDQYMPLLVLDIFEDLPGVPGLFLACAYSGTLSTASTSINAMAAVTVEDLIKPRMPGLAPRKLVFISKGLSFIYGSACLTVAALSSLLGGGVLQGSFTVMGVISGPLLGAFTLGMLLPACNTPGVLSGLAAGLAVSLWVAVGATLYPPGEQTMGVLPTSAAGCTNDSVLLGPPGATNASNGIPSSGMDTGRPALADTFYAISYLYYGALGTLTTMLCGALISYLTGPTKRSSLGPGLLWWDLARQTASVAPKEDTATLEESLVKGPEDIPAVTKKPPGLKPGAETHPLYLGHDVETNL

FRTL-5 cells = experiment: Neutral red uptake viability assay, FRTL-5; conditions: mean±SD, 2 h exposure
[3] = parameters: method as in PubChem https://pubchem.ncbi.nlm.nih.gov/; conditions: ref PubChem https://pubchem.ncbi.nlm.nih.gov/; cited from earlier work
[4] = ref PubChem https://pubchem.ncbi.nlm.nih.gov/; cited from earlier work
human NIS [5] = target: T1, human NIS; parameters: host or cells: HEK293T (lentiviral transduction, puromycin selection, GFP sorting; lines NIS 02 and NIS C); conditions: hNIS-HEK293T-EPA, RAIU, cited from earlier work
[6] = parameters: method as in PubChem https://pubchem.ncbi.nlm.nih.gov/; conditions: ref PubChem https://pubchem.ncbi.nlm.nih.gov/; cited from earlier work; remark: listed apart in the source
human NIS [7] = target: T1, human NIS; experiment: Biotransformation (BTS, rat S9)-augmented NIS-inhibition assay, HEK293T NIS02; conditions: for IC20: three independent experiments; for effect of fully active BTS (W/S9, W/cof) on NIS inhibition versus control setups: two-way ANOVA, p < 0.05
[8] = read-out: NIS inhibition IC20 D S9, W/cof, 5 h preincubation with denatured S9 and cofactors
[9] = read-out: NIS inhibition IC20 W/O S9, W/cof, 5 h preincubation without S9 fraction, with all cofactors

Structure (SMILES) | NIS IC50 HEK293T NIS C (human NIS [1]) | NIS IC50 HEK293T NIS 02 (human NIS [2]) | NR IC20 HEK293T NISC (HEK293T NIS C cells) | NIS IC50 FRTL-5 (NIS) | NR IC20 FRTL-5 (FRTL-5 cells) | Henry‘s law [3] | solubility in water [4] [µg/mL] | log Kow [6] | also measured
CC1(C)S[C@@H]2[C@H](NC(=O)[C@H](N)c3ccccc3)C(=O)N2[C@H]1C(=O)O [AMP, Ampicillin, reference compound] | n.e and n.e./ n.e. | n.e and n.e./ n.e. | n.e./ n.e. | n.e and n.e./ n.e. | n.e./ n.e. | – | – | – | –
O=C(c1ccc(O)cc1O)c1ccc(O)cc1O [BP2, 2,2′-4,4′-Tetrahydroxy Benzophenone] | n.e and n.e./ n.e. | n.e and n.e./ n.e. | n.e./ n.e. | n.e and n.e. / n.e. | n.e. / n.e. | 3.6x10^-6 atm- m^3/mol | 8821 (≈ 35800 µM) | – | –
NC(=O)N1c2ccccc2C=Cc2ccccc21 [CBZ, Carbamazepine, reference compound] | n.e and n.e./ n.e. | n.e and n.e. / n.e. | n.e./ n.e. | n.e and n.e./ n.e. | – | 1.1x10^-10 atm- m^3/mol | 18 (≈ 76.2 µM) | – | Data from literature NIS IC50 (human NIS [5]; ref US-EPA, 2024): n.e.; Data from literature NIS IC50 (human NIS [5]; ref Wang et al., 2019): n.e.
CC1=C[C@H]2O[C@@H]3[C@H](O)C[C@](C)([C@@]2(CO)[C@H](O)C1=O)[C@]31CO1 [DON, Deoxynivalenol] | – | – | – | – | – | 2.0x10^-14 atm- m^3/mol | 55000 (≈ 186000 µM) | -0.71 | –
S=C1NCCN1 [ETU, Ethylene thiourea] | n.e and n.e./ n.e. | n.e and n.e./ n.e. | n.e./ n.e. | n.e and n.e./ n.e. | n.e./ n.e. | 1.4x10^-11 atm- m^3/mol | – | -0.66 | –
CCC(Cc1c(I)cc(I)c(N)c1I)C(=O)O (stereo not shown) [IOP, Iopanoic acid, reference compound] | n.e and n.e. / n.e. | n.e and n.e. / n.e. | n.e. / n.e. | n.e and n.e. / n.e. | n.e. / n.e. | – | 348.3 (≈ 610 µM) | – | –
COc1ccc(C(c2ccc(OC)cc2)C(Cl)(Cl)Cl)cc1 [MET, Methoxychlor, reference compound] | n.e and n.e./ n.e. | – | n.e./ n.e. | – | 218±4.3 / n.e. | 2.03x10^-7 atm- m^3/mol | 0.04 (≈ 0.116 µM) | 5.08 | IC20 (human NIS [5]; ref US-EPA, 2024, read-out: Data from literature NIS IC20): 12.6 µM; Data from literature NIS IC50 (human NIS [5]; ref Wang et al., 2018): n.e.; IC50 (human NIS [2]): 11 ± 8.7 µM; IC50 (NIS): 218 ± 4.3 µM; IC20 (human NIS [7]; [8]): 20.7 ± 19.5 µM; IC20 (human NIS [7]; [9]): > 500 µM; effect of fully active BTS (W/S9, W/cof) on NIS inhibition versus control setups (human NIS [7]): no biotransformation-related effect changes were detected
CCCc1cc(=O)[nH]c(=S)[nH]1 [PTU, 6-Propylthiouracil, reference compound] | n.e and n.e. / n.e. | n.e and n.e. / n.e. | n.e. / n.e. | n.e and n.e. / n.e. | n.e. / n.e. | 1.1x10^-9 atm- m^3/mol | – | – | Data from literature NIS IC50 (human NIS [5]; ref Buckalew et al., 2020): n.e.; Data from literature NIS IC50 (human NIS [5]; ref Hallinger et al., 2017): n.e.
Oc1cccc(O)c1 [RSC, Resorcinol] | n.e and n.e./ n.e. | – | n.e./ n.e. | – | 4709.5 ±562 / n.e. | 9.9x10^-11 atm- m^3/mol | – | 0.8 | Data from literature NIS IC50 (human NIS [5]; ref Wang et al., 2019): n.e.; IC50 (human NIS [2]): 4060 ± 2050 µM; IC50 (NIS): 4710 ± 562 µM; effect of fully active BTS (W/S9, W/cof) on NIS inhibition versus control setups (human NIS [7]): no significant differences were observed
O=C(O)c1ccccc1O [SA, Salicylic acid] | n.e and n.e. / n.e. | n.e and n.e. / n.e. | n.e. / n.e. | n.e and n.e. / n.e. | n.e. / n.e. | – | – | 2.26 | –
Cc1cc(NS(=O)(=O)c2ccc(N)cc2)no1 [SMX, Sulfamethoxazole, reference compound] | n.e and n.e. / n.e. | n.e and n.e. / n.e. | – | n.e and n.e. / n.e. | – | – | – | – | –
N[C@@H](Cc1cc(I)c(Oc2ccc(O)c(I)c2)c(I)c1)C(=O)O [T3, 3,3′,5-Triiodo-L-thyronine] | – | – | n.e. / n.e. | – | n.e. / n.e. | – | – | 0.93 | –
NC(Cc1cc(I)c(Oc2cc(I)c(O)c(I)c2)c(I)c1)C(=O)O [T4, 3,3′,5,5″-Tetraiodo-L-thyronine] | n.e and n.e. / n.e. | n.e and n.e. / n.e. | n.e. / n.e. | n.e and n.e. / n.e. | n.e. / n.e. | – | 0.162 (≈ 0.209 µM) | 0.16 | –
O=P(Oc1ccccc1)(Oc1ccccc1)Oc1ccccc1 [TPP, Triphenyl phosphate] | n.e and n.e. / n.e. | – | n.e. / n.e. | – | 92.6 ±24.1 / n.e. | 3.3x10^-6 atm- m^3/mol | – | 4.6 | IC50 (human NIS [5]; read-out: Data from literature NIS IC50, ref US-EPA, 2024): 50 µM; IC50 (human NIS [2]): 42.8 ± 18.9 µM; IC50 (NIS): 92.6 ± 24.1 µM; IC20 (human NIS [7]; [8]): 9.97 ± 3.36 µM; IC20 (human NIS [7]; read-out: NIS inhibition IC20 SM, standard method without preincubation, run in parallel): 7.93 ± 4.47 µM; IC20 (human NIS [7]; [9]): 17.5 ± 7.2 µM; effect of fully active BTS (W/S9, W/cof) on NIS inhibition versus control setups (human NIS [7]): no biotransformation-related effect changes were detected
